Experimental data from paper PMC9253268 (Frontiers in Immunology, 2022).

Key:
[1] = biological target: T1, recombinant TLR4 protein (Homo sapiens, UniProt O00206); assay: Microscale thermophoresis (MST) binding assay; settings: 1:1 binding mode, read-out: mean KD, CA–TLR4
T1 construct: purchased Abcam ab233665
Experimental: The binding affinity between recombinant TLR4 protein and CA was measured by a NanoTemper Monolith NT.115 instrument (NanoTemper Technologies, Germany). The K D value was fitted by NanoTemper Monolith affinity software (NanoTemper Technologies, Germany) using 1:1 binding mode. Detailed information on the MST assay is provided in Supplementary Materials Section 12 . […]
compound was greater than 9.0×106cm/s and 40% which indicated drug-like […]
Section 11 Surface plasmon resonance (SPR) assay
SPR binding assays were analyzed with Biacore 8K (Biacore, Cytiva). Materials and reagents used in SPR assays were purchased from Cytiva. […]
UK) and CA contained in BHGZD was measured by NanoTemper Monolith NT.115 instrument (NanoTemper Technologies, Germany). […]
After the protein labeling experiment was completed, TLR4 was diluted with binding buffer (20mM HEPES, pH 7.4, 100mM NaCl and 0.005% Tween 20) to ensure that the fluorescence intensity of TLR4 during the MST assay was about 500 RU. […]
After incubation, the samples were loaded into the premium treated capillaries and measured in NanoTemper Monolith NT.115 instrument (NanoTemper Technologies, Germany). […]
The pharmacokinetic parameters were calculated by Drug and Statistic software

[2] = In vivo pharmacokinetic analysis of MG and CA after oral BHGZD (UHPLC-QTRAP-MS/MS); settings: rat plasma after oral BHGZD 21.4 g/kg each day, n = 3
Experimental: The pharmacokinetic parameters were calculated by Drug and Statistic software (Shanghai, China). Detailed information on the collection of blood samples and UHPLC-QTRAP-MS/MS conditions is provided in Supplementary Materials Section 13 . […]
Section 13 Pharmacokinetic analysis […]
administration of BHGZD, ultra-fast liquid chromatography coupled with triple quadrupole-linear ion trap composite mass spectrometry (UHPLC-QTRAP-MS/MS) system was […]
Bioanalytical Method Validation issued by Chinese Pharmacopoeia Commission in 2020.
The pharmacokinetic parameters were calculated by Drug and Statistic software […]
1) Collection of blood samples
Male Lewis rats (n=6, 6-8 weeks-old, 200±20g in weight) were purchased from Beijing Vital River Laboratory Animal Technology Co., Ltd. (SCCK 2016-0006, Beijing, China; n=3 per group, including normal control group and normal control+BHGZD treatment group).
Diet was prohibited for 12h before the experiment but water was freely available. Blood samples (~0.25mL) were collected from the retinal venous plexus into heparinized 1.5mL polythene tubes before administration and 0, 0.25, 0.5, 1, 2, 3, 4, 6, 8,12 and 24h after administration of BHGZD. The plasma samples were obtained after centrifuging at 12000rpm for 15min, and stored at -20℃ prior to analysis.
2) UHPLC-QTRAP-MS/MS conditions
Quantification analysis were performed on an ultra-high-performance liquid chromatography (Shimadzu Corp., Japan) tandem ion trap quadrupole QTRAP 6500 plus mass spectrometry (AB Sciex, USA). Chromatographic separation was conducted using a Poroshell 120 EC-C18 column (3.0×50mm, 2.7μm) at 40℃. The mobile phase was consisted of 0.1% formic acid–water (v/v, A) and methanol (B) and elution program were:
Mass spectrometry detector were conducted in negative mode and the detecting parameters were set as follows: curtain gas, 35 psi; collision gas, medium; ionspray voltage, 4500 V; temperature, 550℃; ion source gas 1 and 2, 55psi. Quantitative ion pairs were optimized for MG: m/z 421.2-301.1 (declustering potential: 63V, CE: 30eV) and for […]
Data acquisition and analysis

[3] = system: RAW264.7 cells; assay: Cell viability, CCK-8 assay; format: cell-based, mouse; settings: 0.21–6.74 ng/ml MG or 0.02–0.52 ng/ml CA treatment alone
Experimental: Cell viability was analyzed with the cell counting kit-8 (CCK-8) assay kit (Beyotime Biotechnology, Shanghai, China) as described in Supplementary Materials Section 16 .
Section 16 Cell proliferation assay
Cell viability was analyzed with Cell Counting Kit-8 (CCK-8) assay kit (Beyotime Biotechnology, China). Raw264.7 cells were seeded into 96-well plate, and after […]
solution was added to each well. The absorbance was measured after 4h of incubation at […]
Section 17 Flow cytometry
To identify and quantify of pyroptosis population of Raw264.7 cells, FITC Apoptosis Detection kit I staining with both the Annexin V-fluorescein isothiocyanate and propidium iodide (PI, BD Biosciences, San Jose, CA, USA) was used in accordance with manufacturer's guidelines. Briefly, Raw264.7 cells was washed twice with cold PBS and then resuspended in 1×binding buffer at a concentration of 1x10^6 cells/mL. Then, 100µL of the solution (1x10^5 cells) was transferred to a 5 mL culture tube. Subsequently, 5µL of FITC Annexin V and 5µL PI were added into cultured tube, and vortexed and incubated for 15 min at room temperature in the dark. Finally, 400µL 1×binding buffer was added into each tube, and analyzed by flow cytometry (ACEA Bioscience, San Diego, CA, USA) and NovoExpress 1.4.1 software (ACEA Bioscience, San Diego, CA, USA) within 1h.

[4] = system: RAW264.7 cells; assay: LPS/ATP-induced pyroptosis in RAW264.7 cells (flow cytometry, FAM-FLICA, immunofluorescence, Western blotting, ELISA); format: cell-based, mouse
Source text: (§1) Mouse macrophage cell line (RAW264.7 cells, Bio-Swamp, Wuhan, China) and fibroblast-like synoviocytes in patients with RA (MH7A cells, Riken cell bank, Ibaraki, Japan) at passage numbers four to eight were used in the current experiment validations.
(§2) The concentration of DMSO was less than 1‰ of the solution for the in vitro experiment.
Fluorescence images were visualized and photographed with a confocal microscope (Zeiss LSM 880, Carl Zeiss, Jena, Germany).
The images were visualized and photographed with a confocal microscope (Zeiss LSM 880, Carl Zeiss, Jena, Germany) or an inverted fluorescence microscope (MF53, MSHOT, Guangzhou, China).
(§3) To evaluate the therapeutic effects of two BACs from BHGZD on the regulation of the “immune-inflammation” system, the levels of cytokines, proteins, and LDH release in RAW264.7 and MH7A cellular supernatant, as well as the sera of AIA-M rats were determined using enzyme-linked immunosorbent assay (ELISA) to assess the integrity of membranes in accordance with the manufacturer’s guidelines.
Raw264.7 cells were maintained in DMEM (Hyclone, Logan, UT, USA), supplemented
100μg/mL streptomycin and 2mM L-glutamine (TBD, Tianjin, China) in a humidified 5%
CO2 incubator at the temperature of 37℃. The Raw264.7 cells at passage numbers four
to eight were used in the current experiment validations.
MH7A cells were cultured in sterile synoviocyte growth medium (Cell Applicatio ns, Inc.,
L-glutamine (TBD, Tianjin, China) in a humidified 5% CO2 incubator at the temperature of
37℃. MH7A at passage numbers four to eight were used in the current experiment
(§4) To induce a conventional NLRP3 inflammasome activation, Raw264.7cells was induced
(§5) with 0.2μg/mL lipopolysaccharide [LPS, Escherichia coli (O111:B4), Sigma-Aldrich, St
(§6) Louis, MO, USA] for 4h, followed with a 3mM ATP adenosine triphosphate (ATP disodium
(§7) salt hydrate, Sigma-Aldrich, St Louis, MO, USA) for 1h of incubation at 37℃ with 5% CO2
(§8) For MH7A cells LPS/ATP-induced pyrotosis, MH7A cells were induced with 1μg/mL LPS
(§9) for 6h, followed with a 3mM ATP for 1h of incubation at 37℃ with 5% CO2 (11).

[5] = system: MH7A cells; assay: LPS/ATP-induced pyroptosis in MH7A cells (TUNEL, immunofluorescence, Western blotting, ELISA); format: cell-based, human
Source text: as §1
The conventional NLRP3 inflammasome activation cellular model was induced by lipopolysaccharide [LPS, Escherichia coli (O111:B4), Sigma-Aldrich, St Louis, MO, USA] and adenosine triphosphate (ATP disodium salt hydrate, Sigma-Aldrich, St Louis, MO, USA) as in our previous study ([22]) ( Supplementary Materials Section 15 ).
as §2
The occurrence of pyroptosis in both MH7A cells and synovium tissues in AIA-M rats was determined by in situ TUNEL staining (TUNEL Andy Fluor™ 594 Apoptosis Detection Kit, ABP Biosciences, Wuhan, China) in accordance with the manufacturer’s protocol. Fluorescence images were visualized and photographed with inverted fluorescence microscopes (MF53, MSHOT, Guangzhou, China; Olympus, BX51, Tokyo, Japan).
Double fluorescence staining was performed as described previously ([22]) ( Supplementary Materials Section 20 ). The images were visualized and photographed with a confocal microscope (Zeiss LSM 880, Carl Zeiss, Jena, Germany) or an inverted fluorescence microscope (MF53, MSHOT, Guangzhou, China).
To evaluate the regulation of BHGZD on the candidate targets in arthritic tissue samples, as well as RAW264.7 and MH7A cells, Western blotting analysis was carried out following the protocol as in our previous studies ([21], [24], [29]). TLR4, phospho-PI3K (p-PI3K), PI3K, p-AKT, p-NFκB-p65, NFκB-p65, NLRP3, ASC, caspase-1, the N-terminal domain of GSDMD (GSDMD-NT), and IL-1β antibodies were used as shown in Supplementary Table S3 . GAPDH (GAPDH Mouse monoclonal antibody, Abcam, Cambridge, UK) and β-actin (Anti-beta-Actin/β-Actin Antibody, Boster Biological Technology, California, USA) were used as loading controls for arthritic tissue samples and cultured cells, respectively.
as §3, §4, §5, §6, §7, §8, §9

[6] = LPS/ATP-induced RAW264.7 cells, all p < 0.05
[7] = LPS/ATP-induced, BHGZD 28.54 μg/ml, MG 1.69 ng/ml, CA 0.13 ng/ml, 24 h
[8] = LPS/ATP-induced MH7A cells, all p < 0.05

T1 sequence (O00206 24-839): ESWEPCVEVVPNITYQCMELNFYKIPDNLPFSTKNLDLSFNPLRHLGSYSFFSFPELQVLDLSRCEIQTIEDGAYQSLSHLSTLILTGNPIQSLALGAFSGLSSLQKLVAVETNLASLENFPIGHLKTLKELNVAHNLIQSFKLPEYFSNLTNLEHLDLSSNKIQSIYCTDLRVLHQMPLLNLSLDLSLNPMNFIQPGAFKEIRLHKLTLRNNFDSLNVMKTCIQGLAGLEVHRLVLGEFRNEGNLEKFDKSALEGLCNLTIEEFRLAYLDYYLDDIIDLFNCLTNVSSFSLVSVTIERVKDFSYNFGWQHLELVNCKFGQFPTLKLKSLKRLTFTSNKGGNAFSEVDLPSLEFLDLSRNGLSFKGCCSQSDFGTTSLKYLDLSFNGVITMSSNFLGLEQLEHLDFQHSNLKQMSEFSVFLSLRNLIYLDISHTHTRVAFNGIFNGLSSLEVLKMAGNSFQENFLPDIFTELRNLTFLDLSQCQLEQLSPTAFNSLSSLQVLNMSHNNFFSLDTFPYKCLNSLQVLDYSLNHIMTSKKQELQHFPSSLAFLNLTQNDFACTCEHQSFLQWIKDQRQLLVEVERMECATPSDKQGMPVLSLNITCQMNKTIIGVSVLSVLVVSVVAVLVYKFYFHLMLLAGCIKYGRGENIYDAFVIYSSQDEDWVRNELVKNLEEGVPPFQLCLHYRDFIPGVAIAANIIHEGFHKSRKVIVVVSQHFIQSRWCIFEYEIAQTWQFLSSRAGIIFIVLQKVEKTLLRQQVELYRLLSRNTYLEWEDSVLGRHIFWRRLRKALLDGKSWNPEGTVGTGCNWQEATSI

O=C(O)/C=C/c1ccccc1 [CA, cinnamic acid]
Kd [1]: 211 µM | t1/2z ([2]; apparent elimination half-life): 1.65 ± 1.34 h | Cmax ([2]; male, Lewis, rat, plasma, po, 21.4 g/kg, non-compartment model, read-out: Cmax): 120 ± 25.9 ng/mL | AUC(0-t) ([2]; male, Lewis, 0-24 h): 102 ± 67.8 ng·h/mL | AUC(0-inf) ([2]; male, Lewis): 144 ± 30.4 ng·h/mL | MRT last ([2]; male, Lewis, read-out: MRT(0-t)): 1.93 ± 0.35 h | MRT inf ([2]; male, Lewis, read-out: MRT(0-∞)): 2.26 ± 0.8 h | cell viability (CCK8) [3]: no cell toxicity | GSDMD-NT ([4]; LPS/ATP-induced RAW264.7 cells, Western blotting): decreased | expression levels of NLRP3, ASC, and caspase-1 [4, 6]: reduced | levels of IL-1β, IL-18, and LDH release in the supernatant [4, 6]: reduced | PI positive cell rate ([4]; LPS/ATP-induced, 1.69 ng/ml MG, 0.13 ng/ml CA, 24 h, inferior to BHGZD, all p < 0.05): prominently reduced | number of FLICA-positive RAW264.7 cells [4, 7]: reduced | inhibition on cell pyroptosis induced by LPS/ATP, alone versus combination ([4]; RAW264.7 and MH7A cells, all p < 0.05): weaker than that in the two-BAC combination treatment group | GSDMD-NT ([5]; LPS/ATP-induced MH7A cells, Western blotting): decreased | expression levels of NLRP3, ASC, and caspase-1 [5, 8]: reduced | levels of IL-1β, IL-18, and LDH release in the supernatant [5, 8]: reduced | number of TUNEL-positive MH7A cells [5, 7]: reduced
